Test results published in patent publication US20210322582A1, “RADIOACTIVE IMIDAZOTHIADIAZOLE DERIVATIVE COMPOUND” (Nihon Medi-Physics Co., Ltd., priority 2018, published 2021).

Tests used:
HT-29 tumor = test: Biodistribution of [^111In]ITDA2 in HT-29 tumor cancer-bearing mouse; format: in vivo; settings: HT-29 tumor mouse
Experimental: (§1) HT-29 cells (5×10^6 cells/mouse) and MDA-MB-231 cells (1×10^7 cells/mouse) were subcutaneously inoculated into the left shoulders of 5-week old male BALB/c nude mice, respectively, and the mice were used when the tumor diameter reached 6 to 10 mm. A saline solution (100 μL) in which [^111In]ITDA2 (40 kBq) had been dissolved was administered to each of the HT-29 tumor or MDA-MB-231 tumor cancer-bearing mice (n=5) via the tail vein. The HT-29 tumor cancer-bearing mice were slaughtered after the lapse of 1, 4, 8, and 24 hours from the administration, the MDA-MB-231 tumor cancer-bearing mouse was slaughtered after the lapse of 24 hours from the administration, and the blood, spleen, pancreas, stomach, intestines, kidney, liver, heart, lungs, brain, tumor, and muscle were recovered from each of the mice. The weight of each organ was measured, and the amount of radioactivity in each organ was measured by using a gamma counter. The accumulation of radioactivity in each organ except for stomach was expressed by % injected dose/g organ obtained by dividing the ratio of the amount of radioactivity of each organ to the administered amount of radioactivity by the organ weight. The stomach was expressed by % injected dose.

MDA-MB-231 tumor = test: Biodistribution of [^111In]ITDA2 in MDA-MB-231 tumor cancer-bearing mouse; format: in vivo; settings: MDA-MB-231 tumor mouse, 24 hours
Experimental: as §1

Biokinetics: Blood (HT-29 tumor; 1 hour): 0.27 ± 0.03 % injected dose/g organ | Biokinetics: Brain (HT-29 tumor; 1 hour): 0.30 ± 0.04 % injected dose/g organ | Biokinetics: Heart (HT-29 tumor; 1 hour): 5.64 ± 1.01 % injected dose/g organ | Biokinetics: Intestines (HT-29 tumor; 1 hour): 11.24 ± 1.54 % injected dose/g organ | Biokinetics: Kidney (HT-29 tumor; 1 hour): 137 ± 11.1 % injected dose/g organ | Biokinetics: Liver (HT-29 tumor; 1 hour): 4.11 ± 0.54 % injected dose/g organ | Biokinetics: Lungs (HT-29 tumor; 1 hour): 6.10 ± 0.97 % injected dose/g organ | Biokinetics: Muscle (HT-29 tumor; 1 hour): 2.05 ± 0.61 % injected dose/g organ | Biokinetics: Pancreas (HT-29 tumor; 1 hour): 20.01 ± 6.77 % injected dose/g organ | Biokinetics: Spleen (HT-29 tumor; 1 hour): 0.40 ± 0.27 % injected dose/g organ | Biokinetics: Stomach (HT-29 tumor; 1 hour): 3.99 ± 0.49 % injected dose | Biokinetics: Tumor (HT-29 tumor; 1 hour): 2.11 ± 0.32 % injected dose/g organ | Tumor/blood (HT-29 tumor; 1 hour): 7.78 ± 0.95 | Tumor/muscle (HT-29 tumor; 1 hour): 1.12 ± 0.45 | Biokinetics: Blood (HT-29 tumor; 4 hours): 0.18 ± 0.01 % injected dose/g organ | Biokinetics: Brain (HT-29 tumor; 4 hours): 0.30 ± 0.04 % injected dose/g organ | Biokinetics: Heart (HT-29 tumor; 4 hours): 2.81 ± 0.39 % injected dose/g organ | Biokinetics: Intestines (HT-29 tumor; 4 hours): 15.32 ± 1.51 % injected dose/g organ | Biokinetics: Kidney (HT-29 tumor; 4 hours): 143 ± 12.0 % injected dose/g organ | Biokinetics: Liver (HT-29 tumor; 4 hours): 4.87 ± 1.08 % injected dose/g organ | Biokinetics: Lungs (HT-29 tumor; 4 hours): 4.25 ± 0.76 % injected dose/g organ | Biokinetics: Muscle (HT-29 tumor; 4 hours): 2.00 ± 0.21 % injected dose/g organ | Biokinetics: Pancreas (HT-29 tumor; 4 hours): 20.88 ± 2.49 % injected dose/g organ | Biokinetics: Spleen (HT-29 tumor; 4 hours): 0.13 ± 0.10 % injected dose/g organ | Biokinetics: Stomach (HT-29 tumor; 4 hours): 5.09 ± 0.66 % injected dose | Biokinetics: Tumor (HT-29 tumor; 4 hours): 2.47 ± 0.30 % injected dose/g organ | Tumor/blood (HT-29 tumor; 4 hours): 13.85 ± 2.45 | Tumor/muscle (HT-29 tumor; 4 hours): 1.24 ± 0.19 | Biokinetics: Blood (HT-29 tumor; 8 hours): 0.20 ± 0.01 % injected dose/g organ | Biokinetics: Brain (HT-29 tumor; 8 hours): 0.35 ± 0.05 % injected dose/g organ | Biokinetics: Heart (HT-29 tumor; 8 hours): 1.89 ± 0.35 % injected dose/g organ | Biokinetics: Intestines (HT-29 tumor; 8 hours): 15.40 ± 0.94 % injected dose/g organ | Biokinetics: Kidney (HT-29 tumor; 8 hours): 110 ± 13.7 % injected dose/g organ | Biokinetics: Liver (HT-29 tumor; 8 hours): 4.58 ± 0.76 % injected dose/g organ | Biokinetics: Lungs (HT-29 tumor; 8 hours): 2.87 ± 1.08 % injected dose/g organ | Biokinetics: Muscle (HT-29 tumor; 8 hours): 1.39 ± 0.20 % injected dose/g organ | Biokinetics: Pancreas (HT-29 tumor; 8 hours): 13.15 ± 4.17 % injected dose/g organ | Biokinetics: Spleen (HT-29 tumor; 8 hours): 0.32 ± 0.20 % injected dose/g organ | Biokinetics: Stomach (HT-29 tumor; 8 hours): 6.78 ± 0.95 % injected dose | Biokinetics: Tumor (HT-29 tumor; 8 hours): 3.10 ± 0.35 % injected dose/g organ | Tumor/blood (HT-29 tumor; 8 hours): 15.31 ± 1.69 | Tumor/muscle (HT-29 tumor; 8 hours): 2.28 ± 0.39 | Biokinetics: Blood (HT-29 tumor; 24 hours): 0.26 ± 0.02 % injected dose/g organ | Biokinetics: Brain (HT-29 tumor; 24 hours): 0.37 ± 0.09 % injected dose/g organ | Biokinetics: Heart (HT-29 tumor; 24 hours): 1.58 ± 0.42 % injected dose/g organ | Biokinetics: Intestines (HT-29 tumor; 24 hours): 11.14 ± 2.06 % injected dose/g organ | Biokinetics: Kidney (HT-29 tumor; 24 hours): 76.4 ± 17.2 % injected dose/g organ | Biokinetics: Liver (HT-29 tumor; 24 hours): 3.50 ± 0.81 % injected dose/g organ | Biokinetics: Lungs (HT-29 tumor; 24 hours): 2.15 ± 0.49 % injected dose/g organ | Biokinetics: Muscle (HT-29 tumor; 24 hours): 1.00 ± 0.25 % injected dose/g organ | Biokinetics: Pancreas (HT-29 tumor; 24 hours): 7.23 ± 1.40 % injected dose/g organ | Biokinetics: Spleen (HT-29 tumor; 24 hours): 0.27 ± 0.13 % injected dose/g organ | Biokinetics: Stomach (HT-29 tumor; 24 hours): 9.33 ± 0.72 % injected dose | Biokinetics: Tumor (HT-29 tumor; 24 hours): 5.93 ± 0.88 % injected dose/g organ | Tumor/blood (HT-29 tumor; 24 hours): 22.63 ± 3.31 | Tumor/muscle (HT-29 tumor; 24 hours): 6.18 ± 1.45 | Biokinetics: Blood (MDA-MB-231 tumor): 0.29 ± 0.04 % injected dose/g organ | Biokinetics: Brain (MDA-MB-231 tumor): 0.34 ± 0.07 % injected dose/g organ | Biokinetics: Heart (MDA-MB-231 tumor): 1.13 ± 0.19 % injected dose/g organ | Biokinetics: Intestines (MDA-MB-231 tumor): 9.15 ± 1.04 % injected dose/g organ | Biokinetics: Kidney (MDA-MB-231 tumor): 59.8 ± 4.04 % injected dose/g organ | Biokinetics: Liver (MDA-MB-231 tumor): 2.77 ± 0.45 % injected dose/g organ | Biokinetics: Lungs (MDA-MB-231 tumor): 1.70 ± 0.57 % injected dose/g organ | Biokinetics: Muscle (MDA-MB-231 tumor): 0.64 ± 0.06 % injected dose/g organ | Biokinetics: Pancreas (MDA-MB-231 tumor): 3.37 ± 0.28 % injected dose/g organ | Biokinetics: Spleen (MDA-MB-231 tumor): 0.27 ± 0.07 % injected dose/g organ | Biokinetics: Stomach (MDA-MB-231 tumor): 8.43 ± 1.08 % injected dose | Biokinetics: Tumor (MDA-MB-231 tumor): 1.56 ± 0.17 % injected dose/g organ | Tumor/blood (MDA-MB-231 tumor): 5.51 ± 0.78 | Tumor/muscle (MDA-MB-231 tumor): 2.46 ± 0.39
SMILES: NS(=O)(=O)c1nn2cc(-c3ccc(NC(=O)CN4CCN(CC(=O)O)CCN(CC(=O)Nc5ccc(-c6cn7nc(S(N)(=O)=O)sc7n6)cc5)CCN(CC(=O)O)CC4)cc3)nc2s1.[111In+3] [[^111In]ITDA2, [^111In]indium(III)2,2′-(4,10-bis(2-oxo-2-((4-(2-sulfamoylimidazo[2,1-b][1,3,4]thiadiazol-6-yl)phenyl)amino)ethyl)-1,4,7,10-tetraazacyclododecan-1,7-diyl) diacetic acid]
